{
  "source": "patent US20120101100A1",
  "about": "(priority 2008, published 2012)",
  "note": "Counter-ions that a name gives are not always drawn.",
  "data": [
    {"target": "S. aureus GyrB ATPase (Staphylococcus aureus, UniProt P0A0K8)", "sequence (P0A0K8 whole entry)": "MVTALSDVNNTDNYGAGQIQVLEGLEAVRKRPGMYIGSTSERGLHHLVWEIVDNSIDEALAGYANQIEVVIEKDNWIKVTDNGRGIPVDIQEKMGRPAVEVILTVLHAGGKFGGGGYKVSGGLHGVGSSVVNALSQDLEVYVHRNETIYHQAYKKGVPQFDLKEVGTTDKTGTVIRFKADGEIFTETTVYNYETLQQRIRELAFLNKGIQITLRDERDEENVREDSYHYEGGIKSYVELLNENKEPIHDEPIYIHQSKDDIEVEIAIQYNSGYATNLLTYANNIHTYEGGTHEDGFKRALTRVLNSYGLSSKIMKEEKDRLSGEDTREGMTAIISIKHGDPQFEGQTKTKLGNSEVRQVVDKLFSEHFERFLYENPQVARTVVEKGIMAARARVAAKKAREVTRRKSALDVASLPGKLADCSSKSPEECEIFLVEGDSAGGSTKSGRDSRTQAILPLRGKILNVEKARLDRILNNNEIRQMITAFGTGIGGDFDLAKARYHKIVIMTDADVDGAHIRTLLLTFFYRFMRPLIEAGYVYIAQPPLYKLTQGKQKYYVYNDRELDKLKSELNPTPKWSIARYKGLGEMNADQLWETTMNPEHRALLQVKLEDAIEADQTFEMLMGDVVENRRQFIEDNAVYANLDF", "sequence (P0AES4 whole entry, further chain)": "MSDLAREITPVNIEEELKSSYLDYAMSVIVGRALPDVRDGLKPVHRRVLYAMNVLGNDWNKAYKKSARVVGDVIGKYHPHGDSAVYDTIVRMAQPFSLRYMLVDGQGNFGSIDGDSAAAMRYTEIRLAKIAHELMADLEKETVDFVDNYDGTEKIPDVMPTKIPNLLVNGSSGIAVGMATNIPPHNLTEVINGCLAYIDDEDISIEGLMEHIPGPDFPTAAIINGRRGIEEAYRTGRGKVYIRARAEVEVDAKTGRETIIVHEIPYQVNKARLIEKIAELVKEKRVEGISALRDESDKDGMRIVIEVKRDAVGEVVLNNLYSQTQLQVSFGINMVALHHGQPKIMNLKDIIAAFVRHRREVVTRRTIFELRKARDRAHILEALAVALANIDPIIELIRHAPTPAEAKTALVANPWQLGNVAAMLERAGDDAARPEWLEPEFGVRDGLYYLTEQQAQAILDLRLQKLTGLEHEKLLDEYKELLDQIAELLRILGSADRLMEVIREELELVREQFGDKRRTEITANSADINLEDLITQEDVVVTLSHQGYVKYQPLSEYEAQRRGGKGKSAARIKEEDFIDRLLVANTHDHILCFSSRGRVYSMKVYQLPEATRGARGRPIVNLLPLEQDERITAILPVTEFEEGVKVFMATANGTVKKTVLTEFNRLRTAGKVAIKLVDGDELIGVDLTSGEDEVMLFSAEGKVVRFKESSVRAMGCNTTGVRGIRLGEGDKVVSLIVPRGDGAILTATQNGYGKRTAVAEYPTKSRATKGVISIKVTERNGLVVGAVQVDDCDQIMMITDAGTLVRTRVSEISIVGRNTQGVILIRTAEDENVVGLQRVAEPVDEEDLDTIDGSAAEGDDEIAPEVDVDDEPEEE", "test": "S. aureus (SAU) GyrB ATPase inhibition, malachite green phosphate detection (E. coli GyrA + S. aureus GyrB)", "format": "biochemical", "details": "compound concentration of 1.0 μM unless otherwise noted; average value where assay was carried out more than once; read-out: S. aureus (SAU) GyrB ATPase % Inhibition", "procedure": "Compounds were tested for inhibition of GyrB ATPase activity using an ammonium molybdate/malachite green-based phosphate detection assay (Lanzetta, P. A., L. J. Alvarez, P. S. Reinach, and O. A. Candia, 1979, 100: 95-97). Assays were performed in multiwell plates in 100 μl reactions containing: 50 mM Hepes buffer pH 7.5, 75 mM ammonium acetate, 8.0 mM magnesium chloride, 1.0 mM ethylenediaminetetraacetic acid, 5% glycerol, 2 mM 1,4-Dithio-DL-threitol, 400 nM bovine serum albumin, 5 μg/ml sheared salmon sperm DNA, 1.25 nM E. coli GyrA, 1.25 nM S. aureus GyrB, 500 μM ATP, and compound in dimethylsulfoxide. Reactions were quenched with 150 μl of ammonium molybdate/malachite green detection reagent containing 1.2 mM malachite green hydrochloride, 8.5 mM ammonium molybdate tetrahydrate, and 1 M hydrochloric acid. Plates were read in an absorbance plate reader at 650 nm and percent inhibition values were calculated using dimethylsulfoxide (2%)-containing reactions as 0% inhibition and novobiocin-containing (2 μM) reactions as 100% inhibition controls. Compound potency was based on IC50 measurements determined from reactions performed in the presence of 10 different compound concentrations.", "units": {"inhibition at 1 µM": "%"}, "values": [
      {"compound": "CCNC(=O)Nc1cc(-c2nc(C(F)(F)F)cs2)c(-c2nc(-c3ncccn3)c(-c3n[nH]c(=O)o3)s2)cn1", "note": "[Example 36, 1-ethyl-3-(5-(5-(5-oxo-4,5-dihydro-1,3,4-oxadiazol-2-yl)-4-(pyrimidin-2-yl)thiazol-2-yl)-4-(4-(trifluoromethyl)thiazol-2-yl)pyridin-2-yl)urea]", "inhibition at 1 µM": 107},
      {"compound": "CCNC(=O)Nc1cc(-c2nc(C(F)(F)F)cs2)c(-c2nc(-c3ncnn3C)c(-c3n[nH]c(=O)o3)s2)cn1", "note": "[Example 37, 1-ethyl-3-(5-(4-(1-mcthyl-1H-1,2,4-triazol-5-yl)-5-(5-oxo-4,5-dihydro-1,3,4-oxadiazol-2-yl)thiazol-2-yl)-4-(4-(trifluoromethyl)thiazol-2-yl)pyridin-2-yl)urea]", "inhibition at 1 µM": 112},
      {"compound": "CCNC(=O)Nc1cc(-c2nnc(-c3ccncc3)o2)c(-c2cncc(-c3n[nH]c(=O)o3)c2)cn1", "note": "[Example 38, 1-ethyl-3-(5′-(5-oxo-4,5-dihydro-1,3,4-oxadiazol-2-yl)-4-(5-(pyridin-4-yl)-1,3,4-oxadiazol-2-yl)-3,3′-bipyridin-6-yl)urea]", "inhibition at 1 µM": 108},
      {"compound": "CCNC(=O)Nc1cc(-c2nc(-c3ccncc3)cs2)c(-c2cncc(-c3n[nH]c(=O)o3)c2)cn1", "note": "[Example 39, N-ethyl-N′-[5′-(5-oxo-4,5-dihydro-1,3,4-oxadiazol-2-yl)-4-(4-pyridin-4-yl-1,3-thiazol-2-yl)-3,3′-bipyridin-6-yl]urea]", "inhibition at 1 µM": 102},
      {"compound": "CCCCOc1ncc(-c2cnc(NC(=O)NCC)cc2-c2nc(C(F)(F)F)cs2)cc1-c1n[nH]c(=O)o1", "note": "[Example 40, 1-(6′-butoxy-5′-(5-oxo-4,5-dihydro-1,3,4-oxadiazol-2-yl)-4-(4-(trifluoromethyl)thiazol-2-yl)-3,3′-bipyridin-6-yl)-3-ethylurea]", "inhibition at 1 µM": 117},
      {"compound": "CCCCOc1ncc(-c2cnc(NC(=O)NCC)cc2-c2nc(C(F)(F)F)cs2)cc1-c1nnc(C)o1", "note": "[Example 41]", "inhibition at 1 µM": 109},
      {"compound": "CC(C)NC(=O)Nc1cc(-c2nc(C(F)(F)F)cs2)c(-c2cncc(-c3n[nH]c(=O)o3)c2)cn1", "note": "[Example 42, 1-isopropyl-3-(5′-(5-oxo-4,5-dihydro-1,3,4-oxadiazol-2-yl)-4-(4-(trifluoromethyl)thiazol-2-yl)-3,3′-bipyridin-6-yl)urea]", "inhibition at 1 µM": 106},
      {"compound": "CCCNC(=O)Nc1cc(-c2nc(C(F)(F)F)cs2)c(-c2cncc(-c3n[nH]c(=O)o3)c2)cn1", "note": "[Example 44, 1-(5′-(5-oxo-4,5-dihydro-1,3,4-oxadiazol-2-yl)-4-(4-(trifluoromethyl)thiazol-2-yl)-3,3′-bipyridin-6-yl)-3-propylurea]", "inhibition at 1 µM": 96},
      {"compound": "O=C(Nc1cc(-c2nc(C(F)(F)F)cs2)c(-c2cncc(-c3n[nH]c(=O)o3)c2)cn1)NC1CC1", "note": "[Example 45, 1-cyclopropyl-3-(5′-(5-oxo-4,5-dihydro-1,3,4-oxadiazol-2-yl)-4-(4-(trifluoromethyl)thiazol-2-yl)-3,3′-bipyridin-6-yl)urea]", "inhibition at 1 µM": 103},
      {"compound": "O=C(Nc1cc(-c2nc(C(F)(F)F)cs2)c(-c2cncc(-c3n[nH]c(=O)o3)c2)cn1)NC1CCCCC1", "note": "[Example 46, 1-cyclohexyl-3-(5′-(5-oxo-4,5-dihydro-1,3,4-oxadiazol-2-yl)-4-(4-(trifluoromethyl)thiazol-2-yl)-3,3′-bipyridin-6-yl)urea]", "inhibition at 1 µM": -1},
      {"compound": "CCN(CC)C(=O)Nc1cc(-c2nc(C(F)(F)F)cs2)c(-c2cncc(-c3n[nH]c(=O)o3)c2)cn1", "note": "[Example 47, 1,1-diethyl-3-(5′-(5-oxo-4,5-dihydro-1,3,4-oxadiazol-2-yl)-4-(4-(trifluoromethyl)thiazol-2-yl)-3,3′-bipyridin-6-yl)urea]", "inhibition at 1 µM": 72},
      {"compound": "O=C(NCC1CC1)Nc1cc(-c2nc(C(F)(F)F)cs2)c(-c2cncc(-c3n[nH]c(=O)o3)c2)cn1", "note": "[Example 48, 1-(cyclopropylmethyl)-3-(5′-(5-oxo-4,5-dihydro-1,3,4-oxadiazol-2-yl)-4-(4-(trifluoromethyl)thiazol-2-yl)-3,3′-bipyridin-6-yl)urea]", "inhibition at 1 µM": 95},
      {"compound": "O=C(NCC(F)(F)F)Nc1cc(-c2nc(C(F)(F)F)cs2)c(-c2cncc(-c3n[nH]c(=O)o3)c2)cn1", "note": "[Example 49, 1-(5′-(5-oxo-4,5-dihydro-1,3,4-oxadiazol-2-yl)-4-(4-(trifluoromethyl)thiazol-2-yl)-3,3′-bipyridin-6-yl)-3-(2,2,2-trifluoroethyl)urea]", "inhibition at 1 µM": 99},
      {"compound": "O=C(NCC(F)F)Nc1cc(-c2nc(C(F)(F)F)cs2)c(-c2cncc(-c3n[nH]c(=O)o3)c2)cn1", "note": "[Example 50, 1-(2,2-difluoroethyl)-3-(5′-(5-oxo-4,5-dihydro-1,3,4-oxadiazol-2-yl)-4-(4-(trifluoromethyl)thiazol-2-yl)-3,3′-bipyridin-6-yl)urea]", "inhibition at 1 µM": 105},
      {"compound": "CCNC(=O)Nc1cc(-c2nc(C(F)(F)F)c(CNCCN3CCOCC3)s2)c(-c2cncc(-c3n[nH]c(=O)o3)c2)cn1", "note": "[Example 51, 1-ethyl-3-(5′-(5-hydroxy-1,3,4-oxadiazol-2-yl)-4-(5-((2-morpholinoethylamino)methyl)-4-(trifluoromethyl)thiazol-2-yl)-3,3′-bipyridin-6-yl)urea trihydrochloride]", "inhibition at 1 µM": 98},
      {"compound": "CCNC(=O)Nc1cc(-c2nc(C(F)(F)F)c(CNC3CCCCC3)s2)c(-c2cncc(-c3n[nH]c(=O)o3)c2)cn1", "note": "[Example 52, 1-(4-(5-((cyclohexylamino)methyl)-4-(trifluoromethyl)thiazol-2-yl)-5′-(5-hydroxy-1,3,4-oxadiazol-2-yl)-3,3′-bipyridin-6-yl)-3-ethylurea hydrochloride]", "inhibition at 1 µM": 108},
      {"compound": "CCNC(=O)Nc1cc(-c2nc(C(F)(F)F)c(CNC3CCCC3)s2)c(-c2cncc(-c3n[nH]c(=O)o3)c2)cn1", "note": "[Example 53, 1-(4-(5-((cyclopentylamino)methyl)-4-(trifluoromethyl)thiazol-2-yl)-5′-(5-hydroxy-1,3,4-oxadiazol-2-yl)-3,3′-bipyridin-6-yl)-3-ethylurea hydrochloride]", "inhibition at 1 µM": 109},
      {"compound": "CCNC(=O)Nc1cc(-c2nc(C(F)(F)F)c(CNCCOC)s2)c(-c2cncc(-c3nnc(C)o3)c2)cn1", "note": "[Example 54, 1-ethyl-3-(4-(5-((2-methoxyethylamino)methyl)-4-(trifluoromethyl)thiazol-2-yl)-5′-(5-methyl-1,3,4-oxadiazol-2-yl)-3,3′-bipyridin-6-yl)urea]", "inhibition at 1 µM": 97},
      {"compound": "CCNC(=O)Nc1cc(-c2nc(C(F)(F)F)c(CNCCN3CCOCC3)s2)c(-c2cncc(-c3nnc(C)o3)c2)cn1", "note": "[Example 55, 1-ethyl-3-(5′-(5-methyl-1,3,4-oxadiazol-2-yl)-4-(5-((2-morpholinoethylamino)methyl)-4-(trifluoromethyl)thiazol-2-yl)-3,3′-bipyridin-6-yl)urea]", "inhibition at 1 µM": 96},
      {"compound": "CCNC(=O)Nc1cc(-c2nc(C(F)(F)F)c(CNC3CCCCC3)s2)c(-c2cncc(-c3nnc(C)o3)c2)cn1", "note": "[Example 56, 1-(4-(5-((cyclohexylamino)methyl)-4-(trifluoromethyl)thiazol-2-yl)-5′-(5-methyl-1,3,4-oxadiazol-2-yl)-3,3′-bipyridin-6-yl)-3-ethylurea]", "inhibition at 1 µM": 96},
      {"compound": "CCNC(=O)Nc1cc(-c2nc(C(F)(F)F)c(CNC3CCCC3)s2)c(-c2cncc(-c3nnc(C)o3)c2)cn1", "note": "[Example 57, 1-(4-(5-((cyclopentylamino)methyl)-4-(trifluoromethyl)thiazol-2-yl)-5′-(5-methyl-1,3,4-oxadiazol-2-yl)-3,3′-bipyridin-6-yl)-3-ethylurea]", "inhibition at 1 µM": 96},
      {"compound": "CCNC(=O)Nc1cc(-c2nc(C(F)(F)F)c(CNC3CCOCC3)s2)c(-c2cncc(-c3nnc(C)o3)c2)cn1", "note": "[Example 58, 1-ethyl-3-(5′-(5-methyl-1,3,4-oxadiazol-2-yl)-4-(5-((tetrahydro-2H-pyran-4-ylamino)methyl)-4-(trifluoromethyl)thiazol-2-yl)-3,3′-bipyridin-6-yl)urea]", "inhibition at 1 µM": 97},
      {"compound": "CCNC(=O)Nc1cc(-c2nc(C(F)(F)F)c(C(=O)NCCOC)s2)c(-c2cncc(-c3n[nH]c(=O)o3)c2)cn1", "note": "[Example 59, 2-(6-(3-ethylureido)-5′-(5-oxo-4,5-dihydro-1,3,4-oxadiazol-2-yl)-3,3′-bipyridin-4-yl)-N-(2-methoxyethyl)-4-(trifluoromethyl)thiazole-5-carboxamide]", "inhibition at 1 µM": 98},
      {"compound": "CCNC(=O)Nc1cc(-c2nc(C(F)(F)F)c(C(=O)NCCOC)s2)c(-c2cncc(-c3nnc(C)o3)c2)cn1", "note": "[Example 60, 2-(6-(3-ethylureido)-5′-(5-methyl-1,3,4-oxadiazol-2-yl)-3,3′-bipyridin-4-yl)-N-(2-methoxyethyl)-4-(trifluoromethyl)thiazole-5-carboxamide]", "inhibition at 1 µM": 92},
      {"compound": "CCNC(=O)Nc1cc(-c2nc(C(F)(F)F)c(C(=O)NCCN3CCOCC3)s2)c(-c2cncc(-c3n[nH]c(=O)o3)c2)cn1", "note": "[Example 61, 2-(6-(3-ethylureido)-5′-(5-oxo-4,5-dihydro-1,3,4-oxadiazol-2-yl)-3,3′-bipyridin-4-yl)-N-(2-morpholinoethyl)-4-(trifluoromethyl)thiazole-5-carboxamide]", "inhibition at 1 µM": 95},
      {"compound": "CCNC(=O)Nc1cc(-c2nc(C(F)(F)F)c(C(=O)NCCN3CCOCC3)s2)c(-c2cncc(-c3nnc(C)o3)c2)cn1", "note": "[Example 62, 2-(6-(3-ethylureido)-5′-(5-methyl-1,3,4-oxadiazol-2-yl)-3,3′-bipyridin-4-yl)-N-(2-morpholinoethyl)-4-(trifluoromethyl)thiazole-5-carboxamide]", "inhibition at 1 µM": 86}
    ]}
  ]
}
